Tested on: 695427-040-R-J1-PDC complex spheroids, viability percent T/C
Assay: Anticancer human tumor 695427-040-R-J1-PDC patient-derived colon adenocarcinoma cell line growth inhibition [GQUAD]
Conditions: for IC50: curve of first compound; for viability, T/C: stronger effect = lower value
Procedure, shortened: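 Viability of tumor cells grown as complex spheroids with endothelial and stromal cells, exposed to drug combinations. Top concentration at or near clinical Cmax (else 10 microM), diluted in half-log increments.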

[1] = second compound 0.0316 µM, first compound 0.0316 µM
[2] = second compound 0.0316 µM, first compound 0.1 µM
[3] = second compound 0.0316 µM, first compound 0.316 µM
[4] = second compound 0.0316 µM, first compound 1 µM
[5] = second compound 0.0316 µM, first compound 3.16 µM
[6] = second compound 0.0316 µM, first compound 10 µM
[7] = second compound 0.1 µM, first compound 0.0316 µM
[8] = second compound 0.1 µM, first compound 0.1 µM
[9] = second compound 0.1 µM, first compound 0.316 µM
[10] = second compound 0.1 µM, first compound 1 µM
[11] = second compound 0.1 µM, first compound 3.16 µM
[12] = second compound 0.1 µM, first compound 10 µM
[13] = second compound 0.316 µM, first compound 0.0316 µM
[14] = second compound 0.316 µM, first compound 0.1 µM
[15] = second compound 0.316 µM, first compound 0.316 µM
[16] = second compound 0.316 µM, first compound 1 µM
[17] = second compound 0.316 µM, first compound 3.16 µM
[18] = second compound 0.316 µM, first compound 10 µM
[19] = second compound 1 µM, first compound 0.0316 µM
[20] = second compound 1 µM, first compound 0.1 µM
[21] = second compound 1 µM, first compound 0.316 µM
[22] = second compound 1 µM, first compound 1 µM
[23] = second compound 1 µM, first compound 3.16 µM
[24] = second compound 1 µM, first compound 10 µM
[25] = second compound 3.16 µM, first compound 0.0316 µM
[26] = second compound 3.16 µM, first compound 0.1 µM
[27] = second compound 3.16 µM, first compound 0.316 µM
[28] = second compound 3.16 µM, first compound 1 µM
[29] = second compound 3.16 µM, first compound 3.16 µM
[30] = second compound 3.16 µM, first compound 10 µM
[31] = second compound 10 µM, first compound 0.0316 µM
[32] = second compound 10 µM, first compound 0.1 µM
[33] = second compound 10 µM, first compound 0.316 µM
[34] = second compound 10 µM, first compound 1 µM
[35] = second compound 10 µM, first compound 3.16 µM
[36] = second compound 10 µM, first compound 10 µM
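Also: spheroids exposed to compounds for seven days before readout.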

CC(=O)O[C@H]1C(=O)[C@@]2(C)[C@H]([C@H](OC(=O)c3ccccc3)[C@]3(O)C[C@H](OC(=O)[C@H](O)[C@@H](NC(=O)c4ccccc4)c4ccccc4)C(C)=C1C3(C)C)[C@]1(OC(C)=O)CO[C@@H]1C[C@@H]2O + Cc1[nH]c2ccc(F)cc2c1-c1nc2c3cccnc3c3ncccc3c2[nH]1
IC50 (second compound 0.0316 µM): 458 nM
IC50 (second compound 0.1 µM): 467 nM
IC50 (second compound 0.316 µM): 451 nM
IC50 (second compound 1 µM): 469 nM
IC50 (second compound 3.16 µM): 453 nM
IC50 (second compound 10 µM): 496 nM
viability, T/C [1]: 99.4%
viability, T/C [2]: 92.9%
viability, T/C [3]: 71.6%
viability, T/C [4]: 4.67%
viability, T/C [5]: 0.18%
viability, T/C [6]: 0.29%
viability, T/C [7]: 103%
viability, T/C [8]: 97.7%
viability, T/C [9]: 73.2%
viability, T/C [10]: 4.64%
viability, T/C [11]: 0.18%
viability, T/C [12]: 0.45%
viability, T/C [13]: 102%
viability, T/C [14]: 91.2%
viability, T/C [15]: 69.8%
viability, T/C [16]: 6.24%
viability, T/C [17]: 0.21%
viability, T/C [18]: 0.26%
viability, T/C [19]: 89.3%
viability, T/C [20]: 87%
viability, T/C [21]: 72.2%
viability, T/C [22]: 7.42%
viability, T/C [23]: 0.2%
viability, T/C [24]: 0.87%
viability, T/C [25]: 78.3%
viability, T/C [26]: 82.9%
viability, T/C [27]: 69.4%
viability, T/C [28]: 7.14%
viability, T/C [29]: 0.33%
viability, T/C [30]: 0.32%
viability, T/C [31]: 77.1%
viability, T/C [32]: 79.7%
viability, T/C [33]: 75.7%
viability, T/C [34]: 10%
viability, T/C [35]: 0.5%
viability, T/C [36]: 0.22%

CC[C@@]1(O)C(=O)OCc2c1cc1n(c2=O)Cc2cc3c(CN(C)C)c(O)ccc3nc2-1 + Cc1[nH]c2ccc(F)cc2c1-c1nc2c3cccnc3c3ncccc3c2[nH]1
IC50 (second compound 0.0316 µM): > 316 nM
IC50 (second compound 0.1 µM): > 316 nM
IC50 (second compound 0.316 µM): > 316 nM
IC50 (second compound 1 µM): > 316 nM
IC50 (second compound 3.16 µM): > 316 nM
IC50 (second compound 10 µM): > 316 nM
viability, T/C (second compound 0.0316 µM, first compound 0.000999 µM): 108%
viability, T/C (second compound 0.0316 µM, first compound 0.00316 µM): 105%
viability, T/C (second compound 0.0316 µM, first compound 0.00999 µM): 109%
viability, T/C [1]: 71.5%
viability, T/C (second compound 0.0316 µM, first compound 0.0999 µM): 98.3%
viability, T/C [3]: 82.1%
viability, T/C (second compound 0.1 µM, first compound 0.000999 µM): 94.5%
viability, T/C (second compound 0.1 µM, first compound 0.00316 µM): 89.4%
viability, T/C (second compound 0.1 µM, first compound 0.00999 µM): 94.1%
viability, T/C [7]: 78.7%
viability, T/C (second compound 0.1 µM, first compound 0.0999 µM): 94.2%
viability, T/C [9]: 89.8%
viability, T/C (second compound 0.316 µM, first compound 0.000999 µM): 97.3%
viability, T/C (second compound 0.316 µM, first compound 0.00316 µM): 90.4%
viability, T/C (second compound 0.316 µM, first compound 0.00999 µM): 92.9%
viability, T/C [13]: 88.2%
viability, T/C (second compound 0.316 µM, first compound 0.0999 µM): 101%
viability, T/C [15]: 78.9%
viability, T/C (second compound 1 µM, first compound 0.000999 µM): 85.2%
viability, T/C (second compound 1 µM, first compound 0.00316 µM): 97.2%
viability, T/C (second compound 1 µM, first compound 0.00999 µM): 92.6%
viability, T/C [19]: 95%
viability, T/C (second compound 1 µM, first compound 0.0999 µM): 91.3%
viability, T/C [21]: 73.2%
viability, T/C (second compound 3.16 µM, first compound 0.000999 µM): 62.5%
viability, T/C (second compound 3.16 µM, first compound 0.00316 µM): 82.9%
viability, T/C (second compound 3.16 µM, first compound 0.00999 µM): 79.3%
viability, T/C [25]: 72.4%
viability, T/C (second compound 3.16 µM, first compound 0.0999 µM): 84.4%
viability, T/C [27]: 77.3%
viability, T/C (second compound 10 µM, first compound 0.000999 µM): 58.9%
viability, T/C (second compound 10 µM, first compound 0.00316 µM): 78.8%
viability, T/C (second compound 10 µM, first compound 0.00999 µM): 83.8%
viability, T/C [31]: 78.2%
viability, T/C (second compound 10 µM, first compound 0.0999 µM): 89.5%
viability, T/C [33]: 73.1%

COc1cc(C2c3cc4c(cc3C(OC3OC5COC(C)OC5C(O)C3O)C3COC(=O)C23)OCO4)cc(OC)c1O (stereo unspecified) + Cc1[nH]c2ccc(F)cc2c1-c1nc2c3cccnc3c3ncccc3c2[nH]1
IC50 (second compound 0.0316 µM): > 10000 nM
IC50 (second compound 0.1 µM): > 10000 nM
IC50 (second compound 0.316 µM): > 10000 nM
IC50 (second compound 1 µM): > 10000 nM
IC50 (second compound 3.16 µM): > 10000 nM
IC50 (second compound 10 µM): > 10000 nM
viability, T/C [1]: 118%
viability, T/C [2]: 90.7%
viability, T/C [3]: 105%
viability, T/C [4]: 102%
viability, T/C [5]: 87.4%
viability, T/C [6]: 78.1%
viability, T/C [7]: 110%
viability, T/C [8]: 92.6%
viability, T/C [9]: 113%
viability, T/C [10]: 68.8%
viability, T/C [11]: 84.1%
viability, T/C [12]: 76.7%
viability, T/C [13]: 112%
viability, T/C [14]: 83.3%
viability, T/C [15]: 80.3%
viability, T/C [16]: 87.3%
viability, T/C [17]: 85.8%
viability, T/C [18]: 74.1%
viability, T/C [19]: 91.9%
viability, T/C [20]: 95.4%
viability, T/C [21]: 90.5%
viability, T/C [22]: 87.6%
viability, T/C [23]: 91.5%
viability, T/C [24]: 71.2%
viability, T/C [25]: 81.2%
viability, T/C [26]: 85.9%
viability, T/C [27]: 82.7%
viability, T/C [28]: 82.7%
viability, T/C [29]: 81.3%
viability, T/C [30]: 69%
viability, T/C [31]: 65.9%
viability, T/C [32]: 74.3%
viability, T/C [33]: 87%
viability, T/C [34]: 83.8%
viability, T/C [35]: 68.7%
viability, T/C [36]: 64.3%

Reference: PubChem BioAssay AID2060492 (Molecular Pharmacology Branch, DTP, NCI, 2025)
